Literature values as cited in patent publication US20030008851A1, “Acne treatment including dual-package system” (priority 2001, published 2003).

Experiments:
[1] = not given; remark: listed apart in the source

SMILES | solubility in alcohol (in words) | solubility in water (in words) ([1]; water) | volume of alcohol dissolving 1 gram (1 gram) | pH of the solution produced ([1]; 1 gram in about 460 ml of water at room temperature) | volume of water dissolving 1 gram ([1]; 1 gram, water, room temperature) | solubility in water ([1]; water, room temperature)
O=C(OOC(=O)c1ccccc1)c1ccccc1 [Benzoyl peroxide] | sparingly soluble | sparingly soluble |  |  |  | 
O=C(O)c1ccccc1O [Salicylic acid] |  | sparingly soluble | about 2.7 ml | 2.4 | about 460 ml | about 0.2 % by weight
